Reference: PMC11843613, “Further Optimization of the mGlu1 PAM VU6024578/BI02982816: Discovery and Characterization of VU6033685” (ACS Chemical Neuroscience, 2025)
Where two headings read alike, the source gives them in different places.

Key:
[1] = Kinetic solubility; format: physicochemical; conditions: kinetic from dmso stock
[2] = Predicted hepatic clearance (dog); format: in vitro ADME
Protocol: at half log concentrations in DMSO were further diluted in assay buffer. The compounds or DMSO vehicle were added to cells and incubated for 2.5 min and an EC20 concentration of glutamate was added and incubated for 1 min. An ECmax concentration of glutamate was also added to cells that were incubated with DMSO vehicle to accurately calculate the EC20 calcium response. Data were normalized by subtracting the basal florescent peak before EC20 agonist addition from the maximal peak elicited by EC20 agonist and PAMs. Using GraphPad Prism 5.0, the concentration response curves were generated and the potencies of the mGlu1 PAMs were determined.
Plasma protein binding: The protein binding of each compound was determined in plasma via equilibrium dialysis employing RED Plates (ThermoFisher Scientific, Rochester, NY). Plasma was added to the 96 well plate containing test compound and mixed thoroughly for a final concentration of 5 µM. […]
Each compound was assayed in triplicate within the same 96-well plate. Fraction unbound was determined using the following equation […]
After a 5 min preincubation, the reaction was initiated by addition of NADPH (1 mM). […] The in vitro half-life (T 1/2, min, Eq. 1), intrinsic clearance (CLint, mL/min/kg, Eq. 2) and subsequent predicted hepatic clearance (CLhep, mL/min/kg, Eq. 3) was determined […]

[3] = Three-day dose escalation toxicology study in mice; format: in vivo, mouse; conditions: for AUC at 3 day: in vivo
[4] = Plasma protein binding (dog); format: in vitro ADME; conditions: pH 7.4, read-out: fu plasma (d)
Protocol: page 13: at half log concentrations in DMSO were further diluted in assay buffer. The compounds or DMSO vehicle were added to cells and incubated for 2.5 min and an EC20 concentration of glutamate was added and incubated for 1 min. An ECmax concentration of glutamate was also added to cells that were incubated with DMSO vehicle to accurately calculate the EC20 calcium response. Data were normalized by subtracting the basal florescent peak before EC20 agonist addition from the maximal peak elicited by EC20 agonist and PAMs. Using GraphPad Prism 5.0, the concentration response curves were generated and the potencies of the mGlu1 PAMs were determined. DMPK Methods Plasma protein binding: The protein binding of each compound was determined in plasma via equilibrium dialysis employing RED Plates (ThermoFisher Scientific, Rochester, NY). Plasma was added to the 96 well plate containing test compound and mixed thoroughly for a final concentration of 5 µM. Subsequently, an aliquot of the plasma-compound mixture was transferred to the cis chamber (red) of the RED plate, with an phosphate buffer (25 mM, pH 7.4) in the trans chamber. The RED plate was sealed and incubated for 4 hours at 37°C with shaking. […] The in vitro half-life (T 1/2, min, Eq. 1), intrinsic clearance (CLint, mL/min/kg, Eq. 2) and subsequent predicted hepatic clearance (CLhep, mL/min/kg, Eq. 3) was determined S13

For `Cc1nc(C2CC2)ccc1CNC(=O)c1cc(-n2cccn2)ccc1Cl` [compound 8], the solubility kinetic ([1]; pH 2.2, aqueous buffer, read-out: Kinetic solubility pH 2.2) was greater than 100 µM, the solubility kinetic ([1]; pH 6.8, aqueous buffer, read-out: Kinetic solubility pH 6.8) was less than 1 µM and the “Predicted CLhep (d)” value [2] was 15.1 mL/min/kg. It also gave an AUC at 3 day ([3]; mouse, three-day, 50 mg/kg, read-out: AUCss at 50 mg/kg) of 5.5 µM·h, an AUC at 3 day ([3]; mouse, three-day, 200 mg/kg, read-out: AUCss at 200 mg/kg) of 69.9 µM·h and an AUC at 3 day ([3]; mouse, three-day, high-dose group (printed 500 mg/kg), read-out: AUCss in high-dose group) of 208 µM·h. For the same compound, the “maximum tolerated dose (MTD)” value ([3]; mouse three-day study) was “not reached”, the “findings at 50 mg/kg” value ([3]; mouse, three-day, 50 mg/kg) was “no test-item-related findings” and the “findings at 200 mg/kg” value ([3]; mouse, three-day, 200 mg/kg) was “some of the mice showed signs of weight loss, decreased motor activity, and swaying gait”. The “findings in high-dose group” value ([3]; mouse, three-day, high-dose group (printed 500 mg/kg)) was “several mice displayed weight loss, decreased motor activity, and swaying gait” and the fraction unbound at 4 h, 5 µM [4] was 0.099.
